Test results published in patent US11684582B2, “Method for stabilizing humidity-sensitive pharmaceutical substance and stabilized preparation thereof” (Delta-Fly Pharma, Inc., priority 2021, dated 2023).

Columns and labels:
[1] = tested on: patients having a solid cancer; conditions: phase-I trial, patients with solid cancer; cited from earlier work
[2] = stability test in acceleration conditions (25° C./humidity 60%): appearance, purity and analogs by HPLC, water content, disintegration time, microbial content; type: physicochemical
[3] = tested on: cancer-bearing nude rats; conditions: oral, versus TS-1; cited from earlier work
[4] = bulk drug, 25° C./60% RH, after 3 months

stable period (specifications satisfied) ([2]; acceleration conditions (25° C./humidity 60%)): ≤ 3 months
Analog (% area): Analog-1 (RRT 0.42) [2, 4]: 0.18%
Analog (% area): Impurity 1 (RRT 0.49) [2, 4]: 0.73%
Analog (% area): Impurity 2 (RRT 0.74) [2, 4]: 2.13%
Analog (% area): Impurity 3 (RRT 0.83) [2, 4]: 0.49%
Analog (% area): Impurity 4 (RRT 1.13) [2, 4]: 0.86%
Analog (% area): Total impurities [2, 4]: 5.8%
Analog (% area): relative elution time 0.30 [2, 4]: 0.27%
Analog (% area): relative elution time 0.80 [2, 4]: 0.21%
Analog (% area): relative elution time 0.88 [2, 4]: 0.07%
Analog (% area): relative elution time 0.89 [2, 4]: 0.05%
Analog (% area): relative elution time 0.90 [2, 4]: 0.10%
Analog (% area): relative elution time 0.92 [2, 4]: 0.15%
Analog (% area): relative elution time 0.93 [2, 4]: 0.13%
Analog (% area): relative elution time 0.94 [2, 4]: 0.05%
Analog (% area): relative elution time 1.03 [2, 4]: 0.22%
Analog (% area): relative elution time 1.29 [2, 4]: 0.06%
Analog (% area): relative elution time 1.30 [2, 4]: 0.09%
Appearance [2, 4]: Grayish-white
Purity (% area) [2, 4]: 94.0%
Water content [2, 4]: 0.2%
Passing status: Appearance ([2]; bulk drug, 25° C./60% RH, after 3 months, specification Grayish-white to pale yellow): Passed
Passing status: Water content ([2]; bulk drug, 25° C./60% RH, after 3 months, specification ≤0.5%): Passed
Passing status: Analog, individual impurities ([2]; bulk drug, 25° C./60% RH, after 3 months, specification ≤1.0%): Not
Passing status: Total impurities ([2]; bulk drug, 25° C./60% RH, after 3 months, specification ≤4.0%): Not
SMILES: CCOCn1cc(F)c(=O)n(C(=O)c2cccc(C(=O)Oc3cc(OC(=O)c4cc(OC(=O)CC)nc(OC(=O)CC)c4)c(Cl)cn3)c2)c1=O [DFP-11207]
safety (serious gastrointestinal toxicity, reduced blood platelet count) [1]: none of serious gastrointestinal toxicity such as diarrhea and toxicity of reduced blood platelet count were observed
therapeutic effects [3]: more excellent than TS-1
